Measurements reported in patent publication US20260315452A1, “PROTEASE INHIBITORS AND USES THEREOF” (priority 2023, published 2026).

molecular target: SARS-CoV-2 3CLpro (Severe acute respiratory syndrome coronavirus 2, UniProt P0DTD1); assay: biochemical; details: inhibition of SARS-CoV-2 3CLpro; 15 nM 3CLpro, 25 μM fluorogenic substrate, 37° C.; read-out: Inhibitory Activity (IC50)

| SMILES | IC50 [nM] |
| --- | --- |
| COC1CN(C(=O)c2cc(Br)cc(C(F)(F)F)c2N[C@H]2CN(C(=O)c3cncc4ccccc34)CCC2(F)F)C1 [Compound 172, (S)-(5-bromo-2-((4,4-difluoro-1-(isoquinoline-4-carbonyl)piperidin-3-yl)amino)-3-(trifluoromethyl)phenyl)(3-methoxyazetidin-1-yl)methanone] | < 100 |
| CNC(=O)c1cc(Br)cc([N+](=O)[O-])c1N[C@@H]1CCCC[C@@H]1NC(=O)c1cncc(CN)c1 [Compound 6, 5-(aminomethyl)-N-((1S,2R)-2-((4-bromo-2-(methylcarbamoyl)-6-nitrophenyl)amino)cyclohexyl) nicotinamide] | ≥ 10000 |
| CNC(=O)c1cc(Br)cc([N+](=O)[O-])c1O[C@H]1CN(C(=O)c2cncc3ccccc23)CCC1(F)F [Compound 180, (S)-5-bromo-2-((4,4-difluoro-1-(isoquinoline-4-carbonyl)piperidin-3-yl)oxy)-N-methyl-3-nitrobenzamide] | ≥ 10000 |
| CNC(=O)c1cc(Br)cc([N+](=O)[O-])c1N[C@H]1CN(C(=O)C2CC(=O)Nc3ccccc32)CCC1(F)F (stereo partly shown) [Compound 104] | < 100 |
| O=C(NC1CC(F)(F)C1)c1cc(Br)cc([N+](=O)[O-])c1N[C@@H]1CCCC[C@@H]1NC(=O)c1cncc2ccccc12 [Compound 56, N-((1S, 2R)-2-((4-bromo-2-((3,3-difluorocyclobutyl)carbamoyl)-6-nitrophenyl)amino)cyclohexyl)isoquinoline-4-carboxamide] | < 100 |
| CNC(=O)c1cc(Br)cc([N+](=O)[O-])c1N[C@@H]1CCCC[C@@H]1NC(=O)c1cncc(N)c1 [Compound 3, 5-amino-N-((1S, 2R)-2-((4-bromo-2-(methylcarbamoyl)-6-nitrophenyl)amino)cyclohexyl)nicotinamide] | 1000 to 10000 |
| CNC(=O)c1cc(Br)cc([N+](=O)[O-])c1N[C@@H]1CN(C(C)=O)CC[C@@H]1NC(=O)c1cncc2ccccc12 [Compound 90, N-((3R, 4S)-1-acetyl-3-((4-bromo-2-(methylcarbamoyl)-6-nitrophenyl)amino)piperidin-4-yl)isoquinoline-4-carboxamide] | 1000 to 10000 |
| CNC(=O)c1cc(Br)cc([N+](=O)[O-])c1O[C@@H]1CN(C(=O)c2cncc3ccccc23)CCC1(F)F [Compound 179, (R)-5-bromo-2-((4,4-difluoro-1-(isoquinoline-4-carbonyl)piperidin-3-yl)oxy)-N-methyl-3-nitrobenzamide] | 100 to 1000 |
| COC(=O)c1cc(Br)cc([N+](=O)[O-])c1N[C@@H]1CCCC[C@@H]1NC(=O)c1cncc2ccccc12 [Compound 51, methyl 5-bromo-2-(((1R, 2S)-2-(isoquinoline-4-carboxamido)cyclohexyl)amino)-3-nitrobenzoate] | 100 to 1000 |
| CNC(=O)c1cc(Br)cc([N+](=O)[O-])c1N1CC[C@H](CNC(=O)c2cncc3ccccc23)C1 [Compound 25, (R)-N-((1-(4-bromo-2-(methylcarbamoyl)-6-nitrophenyl)pyrrolidin-3-yl)methyl)isoquinoline-4-carboxamide] | 100 to 1000 |
| CNC(=O)c1cc(Br)cc([N+](=O)[O-])c1N[C@@H]1CCCC[C@@H]1NC(=O)c1cncc(CNC(=O)OC(C)(C)C)c1 [Compound 5, tert-butyl ((5-(((1S, 2R)-2-((4-bromo-2-(methylcarbamoyl)-6-nitrophenyl)amino)cyclohexyl)carbamoyl)pyridin-3-yl)methyl)carbamate] | ≥ 10000 |
| CNC(=O)c1cc(Cl)cc([N+](=O)[O-])c1N[C@H]1CN(C(=O)c2cncc3ncn(C)c23)CCC1(F)F [Compound 105, (S)-5-chloro-2-((4,4-difluoro-1-(1-methyl-1H-imidazo[4,5-c]pyridine-7-carbonyl)piperidin-3-yl)amino)-N-methyl-3-nitrobenzamide] | < 100 |
| CNC(=O)c1cc(Br)cc([N+](=O)[O-])c1N[C@H]1CN(C(=O)c2cncc3ccccc23)CC[C@@H]1F [Compound 87, 5-bromo-2-(((3S, 4S)-4-fluoro-1-(isoquinoline-4-carbonyl)piperidin-3-yl)amino)-N-methyl-3-nitrobenzamide] | < 100 |
| O=C(NC1CC(F)(F)C1)c1cc(Br)cc([N+](=O)[O-])c1N[C@@H]1COC[C@@H]1NC(=O)c1cncc2ccccc12 [Compound 137, N-((3R,4S)-4-((4-bromo-2-((3,3-difluorocyclobutyl)carbamoyl)-6-nitrophenyl)amino)tetrahydrofuran-3-yl)isoquinoline-4-carboxamide] | 1000 to 10000 |
| O=C(NCC(F)(F)F)c1cc(Br)cc([N+](=O)[O-])c1N[C@H]1CN(C(=O)c2cncc3ccccc23)CCC1(F)F [Compound 148, (S)-5-bromo-2-((4,4-difluoro-1-(isoquinoline-4-carbonyl)piperidin-3-yl)amino)-3-nitro-N-(2,2,2-trifluoroethyl) benzamide] | < 100 |
| CNC(=O)c1cc(Br)cc([N+](=O)[O-])c1NC1(C2CN(C(=O)c3cncc4ccccc34)C2)CC1 [Compound 63, 5-bromo-2-((1-(1-(isoquinoline-4-carbonyl)azetidin-3-yl)cyclopropyl)amino)-N-methyl-3-nitrobenzamide] | 1000 to 10000 |

| SMILES | IC50 [nM] |
| --- | --- |
| CNC(=O)c1cc(Br)cc([N+](=O)[O-])c1N[C@@H]1CCC(C)(C)N(C(=O)c2cncc3ccccc23)C1 [Compound 138, (R)-5-bromo-2-((1-(isoquinoline-4-carbonyl)-6,6-dimethylpiperidin-3-yl)amino)-N-methyl-3-nitrobenzamide] | 100 to 1000 |
| CNC(=O)c1cc(Cl)cc([N+](=O)[O-])c1N[C@H]1CN(C(=O)c2cncc3ccncc23)CC[C@@H]1F [Compound 171, 5-chloro-2-(((3S, 4S)-4-fluoro-1-(2,6-naphthyridine-4 - carbonyl)piperidin-3-yl)amino)-N-methyl-3-nitrobenzamide] | < 100 |
| CNC(=O)c1cc(Br)cc([N+](=O)[O-])c1NCC1CN(C(=O)c2cncc3ccccc23)CC1(F)F (stereo not shown) [Compound 77, 5-bromo-2-(((4,4-difluoro-1-(isoquinoline-4-carbonyl)pyrrolidin-3-yl)methyl)amino)-N-methyl-3-nitrobenzamide] | 1000 to 10000 |
| CNC(=O)c1cc(Cl)cc([N+](=O)[O-])c1N[C@H]1CN(C(=O)c2cncc3ccn(C)c23)CC[C@@H]1F [Compound 178, 5-chloro-2-(((3S, 4S)-4-fluoro-1-(1-methyl-1H-pyrrolo[3,2-c]pyridine-7-carbonyl)piperidin-3-yl)amino)-N-methyl-3-nitrobenzamide] | < 100 |
| CNC(=O)c1cc(Br)cc([N+](=O)[O-])c1N[C@H]1CN(C(=O)c2cncc3cccnc23)CC[C@@H]1F [Compound 108, 5-bromo-2-(((3S, 4S)-4-fluoro-1-(1,6-naphthyridine-8-carbonyl)piperidin-3-yl)amino)-N-methyl-3-nitrobenzamide] | < 100 |
| CNC(=O)c1cc(Br)cc([N+](=O)[O-])c1N[C@@H]1CCCCN(C(=O)c2cnc3ccccc3c2)C1 [Compound 20, (R)-5-bromo-N-methyl-3-nitro-2-((1-(quinoline-3-carbonyl)azepan-3-yl)amino)benzamide] | 100 to 1000 |
| O=C(N[C@@H]1CCOC1)c1cc(Br)cc([N+](=O)[O-])c1N[C@H]1CN(C(=O)c2cncc3ccccc23)CC1(F)F [Compound 163, 5-bromo-2-(((S)-4,4-difluoro-1-(isoquinoline-4-carbonyl)pyrrolidin-3-yl)amino)-3-nitro-N-((R)-tetrahydrofuran-3-yl)benzamide] | < 100 |
| CNC(=O)c1cc(Br)cc(C(F)(F)F)c1N[C@H]1CN(C(=O)c2cncc3ccccc23)CC[C@@H]1F [Compound 183, 5-bromo-2-(((3S, 4S)-4-fluoro-1-(isoquinoline-4-carbonyl)piperidin-3-yl)amino)-N-methyl-3-(trifluoromethyl)benzamide] | < 100 |
| Cc1c(Cl)cncc1C(=O)N1CCC2(CCN(c3c(C(=O)NC4CC(F)(F)C4)cc(Br)cc3[N+](=O)[O-])C2)C1 (stereo not shown) [Compound 24, 5-bromo-2-(7-(5-chloro-4-methylnicotinoyl)-2,7-diazaspiro[4.4]nonan-2-yl)-N-(3,3-difluorocyclobutyl)-3-nitrobenzamide] | 1000 to 10000 |
| CNC(=O)c1cc(Br)cc([N+](=O)[O-])c1N[C@H]1CN(C(=O)c2cc(=O)[nH]c3ccccc23)CCC1(F)F [Compound 103, (S)-5-bromo-2-((4,4-difluoro-1-(2-oxo-1,2-dihydroquinoline-4-carbonyl)piperidin-3-yl)amino)-N-methyl-3-nitrobenzamide] | < 100 |
| O=C(NC1CC(F)(F)C1)c1cc(Br)cc([N+](=O)[O-])c1N1CCC2(CCN(C(=O)c3cncnc3)C2)C1 (stereo not shown) [Compound 115, 5-bromo-N-(3,3-difluorocyclobutyl)-3-nitro-2-(7-(pyrimidine-5-carbonyl)-2,7-diazaspiro[4.4]nonan-2-yl)benzamide] | ≥ 10000 |
| CNC(=O)c1cc(Br)cc([N+](=O)[O-])c1N[C@H]1CN(Cc2cncc3ccccc23)CCC1(F)F [Compound 32, (S)-5-bromo-2-((4,4-difluoro-1-(isoquinolin-4-ylmethyl)piperidin-3-yl)amino)-N-methyl-3-nitrobenzamide] | 100 to 1000 |
| Cc1c(F)cncc1C(=O)N1CCC2(CCN(c3c(C(=O)NC4CC(F)(F)C4)cc(Br)cc3[N+](=O)[O-])C2)C1 (stereo not shown) [Compound 76, 5-bromo-N-(3,3-difluorocyclobutyl)-2-(7-(5-fluoro-4-methylnicotinoyl)-2,7-diazaspiro[4.4]nonan-2-yl)-3-nitrobenzamide] | 1000 to 10000 |
| O=C(O)c1cc(Br)cc([N+](=O)[O-])c1N[C@H]1CN(C(=O)c2cncc3ccccc23)CCC1(F)F [Compound 153, (S)-5-bromo-2-((4,4-difluoro-1-(isoquinoline-4-carbonyl)piperidin-3-yl)amino)-3-nitrobenzoic acid] | 100 to 1000 |
| O=C(N[C@H]1CCOC1)c1cc(Br)cc(C(F)(F)F)c1N[C@H]1CN(C(=O)c2cncc3cccnc23)CCC1(F)F [Compound 109, 5-bromo-2-(((S)-4,4-difluoro-1-(1,6-naphthyridine-8-carbonyl)piperidin-3-yl)amino)-N-((S)-tetrahydrofuran-3-y1)-3-(trifluoromethyl)benzamide] | < 100 |
